Structures are written as SMILES. A value given as a limit tells only on which side of the number the result lay.

The first assay concerns the target T1, dihydrolipoamide acyltransferase (DlaT) (Mycobacterium tuberculosis, UniProt P9WIS7).
T1 sequence (P9WIS7 1-553): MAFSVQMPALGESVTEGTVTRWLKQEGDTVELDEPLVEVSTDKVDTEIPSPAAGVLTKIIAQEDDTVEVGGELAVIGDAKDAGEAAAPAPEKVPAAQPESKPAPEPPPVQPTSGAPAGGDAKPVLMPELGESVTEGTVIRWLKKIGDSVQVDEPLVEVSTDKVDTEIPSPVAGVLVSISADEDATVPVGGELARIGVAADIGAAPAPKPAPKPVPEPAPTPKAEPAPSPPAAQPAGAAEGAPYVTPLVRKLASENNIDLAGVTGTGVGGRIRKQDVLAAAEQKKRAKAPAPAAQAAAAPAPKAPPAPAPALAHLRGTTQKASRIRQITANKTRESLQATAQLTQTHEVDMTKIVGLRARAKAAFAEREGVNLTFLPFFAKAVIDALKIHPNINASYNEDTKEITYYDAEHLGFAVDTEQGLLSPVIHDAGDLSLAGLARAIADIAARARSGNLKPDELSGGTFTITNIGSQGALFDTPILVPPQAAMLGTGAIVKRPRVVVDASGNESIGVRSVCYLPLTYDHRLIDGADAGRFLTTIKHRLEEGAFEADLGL
Put plainly: DlaT inhibition (Dlat IC50); DTNB peroxidase assay with Lpd, DlaT and AhpD. Particulars: Dlat IC50 category. The class given is biochemical.
Compound `O=C(O)C(c1ccccc1)N1C(=O)C(=Cc2ccc(-c3ccccc3Cl)o2)SC1=S` (stereo not shown) [Compound B1] yielded an IC50 below 10 µM.

As to `O=C(O)C(c1ccccc1)N1C(=O)C(=Cc2ccc(-c3cccc(Cl)c3)o2)SC1=S` (stereo not shown) [Compound B2], the IC50 was below 10 µM.

`O=C(O)CCN1C(=O)C(=Cc2ccc(-c3cccc(C(F)(F)F)c3)o2)SC1=S` [Compound B3] registered an IC50 below 10 µM.

Compound `O=C(O)CCN1C(=O)C(=Cc2ccc(-c3ccccc3C(F)(F)F)o2)SC1=S` [Compound B4] returned an IC50 of 11 to 40 µM.

In turn, `O=C(O)CCN1C(=O)C(=Cc2ccc(-c3ccccc3Cl)o2)SC1=S` [Compound B5] had a half-maximal inhibitory concentration (IC50) of 11 to 40 µM.

`O=C(O)CN1C(=O)C(=Cc2ccc(-c3ccccc3Cl)o2)SC1=S` [Compound B6] registered an IC50 of 11 to 40 µM.

`O=C(O)CCN1C(=O)C(=Cc2cccc(-c3ccccc3Cl)n2)SC1=S` [Compound B7] had a 50% inhibitory concentration (IC50) of 41 to 80 µM.

In turn, `O=C(O)C(c1ccccc1)N1C(=O)C(=Cc2cccc(-c3ccccc3Cl)n2)SC1=S` (stereo not shown) [Compound B8] gave an IC50 of 11 to 40 µM.

As to `O=C(O)C(c1ccccc1)N1C(=O)C(=Cc2ccc(-c3ccc(Cl)cc3)o2)SC1=S` (stereo not shown) [Compound B9], the IC50 is below 10 µM.

Compound `O=C(O)C(c1ccccc1)N1C(=O)C(=Cc2ccc(-c3ccc(Cl)c(Cl)c3)o2)SC1=S` (stereo not shown) [Compound B10] displayed an IC50 below 10 µM.

In turn, `O=C(O)CCCCCN1C(=O)C(=Cc2ccc(-c3ccccc3Cl)o2)SC1=S` [Compound B11] displayed an IC50 below 10 µM.

`O=C(O)CCCCCN1C(=O)C(=Cc2ccc(-c3cccc(Cl)c3)o2)SC1=S` [Compound B12]: the half-inhibitory concentration (IC50) was below 10 µM.

As to `O=C(O)CCCCCN1C(=O)C(=Cc2ccc(-c3ccc(Cl)cc3)o2)SC1=S` [Compound B13], the 50% inhibitory concentration (IC50) was below 10 µM.

On to `O=C(O)CCCCCN1C(=O)C(=Cc2ccc(-c3ccc(Cl)c(Cl)c3)o2)SC1=S` [Compound B14], for which the IC50 was below 10 µM.

`O=C(O)CCCCCN1C(=O)C(=Cc2cccc(-c3ccccc3Cl)n2)SC1=S` [Compound B15] showed a half-maximal inhibitory concentration (IC50) of 11 to 40 µM.

Compound `O=C(O)CN1C(=O)C(=Cc2ccc(-c3ccc(-c4ccccc4)cc3)o2)SC1=S` [Compound B16] returned a 50% inhibitory concentration (IC50) below 10 µM.

`O=C(O)CCN1C(=O)C(=Cc2ccc(-c3ccc(-c4ccccc4)cc3)o2)SC1=S` [Compound B17] had an IC50 of 11 to 40 µM.

On to `O=C(O)CCCCCN1C(=O)C(=Cc2ccc(-c3ccc(-c4ccccc4)cc3)o2)SC1=S` [Compound B18], for which the IC50 is below 10 µM.

The compound `O=C(O)C(c1ccccc1)N1C(=O)C(=Cc2ccc(-c3ccc(-c4ccccc4)cc3)o2)SC1=S` (stereo not shown) [Compound B19] yielded an IC50 below 10 µM.

The compound `O=C(O)CCCCCN1C(=O)C(=Cc2ccc(-c3cc(C(F)(F)F)ccc3Cl)o2)SC1=S` [Compound B20] registered an IC50 below 10 µM.

`COc1ccc(-c2ccc(C=C3SC(=S)N(CCCCCC(=O)O)C3=O)o2)cc1Cl` [Compound B21] came in with an IC50 of 11 to 40 µM.

On to `O=C(O)CCCCCN1C(=O)C(=Cc2ccc(-c3cccc(C(F)(F)F)c3)o2)SC1=S` [Compound B22], for which the IC50 is below 10 µM.

Consider `O=C(O)CCCCCN1C(=O)C(=Cc2ccc(-c3ccccc3C(F)(F)F)o2)SC1=S` [Compound B23], for which the IC50 lay in the range of 11 to 40 µM.

Take `O=C(O)CCCCCN1C(=O)C(=Cc2ccc(-c3ccccc3OC(F)(F)F)o2)SC1=S` [Compound B24]: the half-maximal inhibitory concentration (IC50) is below 10 µM.

In the case of `O=C(O)C(c1ccccc1)N1C(=O)C(=Cc2ncc(-c3cccc(C(F)(F)F)c3)s2)SC1=S` (stereo not shown) [Compound B25], the IC50 is below 10 µM.

As to `O=C(O)CCN1C(=O)C(=Cc2ccc(-c3ccc(O)cc3)o2)SC1=S` [Compound B26], the IC50 fell in the range of 41 to 80 µM.

Consider `O=C(O)CCCCCN1C(=O)C(=Cc2ccc(-c3ccc(O)cc3)o2)SC1=S` [Compound B27], for which the IC50 was below 10 µM.

`O=C(O)C(c1ccccc1)N1C(=O)C(=Cc2ccc(-c3ccc(Oc4ccccc4)cc3)o2)SC1=S` (stereo not shown) [Compound B28] yielded an IC50 of 11 to 40 µM.

`O=C(O)C(c1ccccc1)N1C(=O)C(=Cc2ccc(-c3ccc(O)cc3)o2)SC1=S` (stereo not shown) [Compound B29] gave a 50% inhibitory concentration (IC50) of 11 to 40 µM.

`O=C(O)CN1C(=O)C(=Cc2ccc(-c3ccc(Cc4ccccc4)cc3)o2)SC1=S` [Compound B30] yielded an IC50 below 10 µM.

With `O=C(O)CCN1C(=O)C(=Cc2ccc(-c3ccc(Cc4ccccc4)cc3)o2)SC1=S` [Compound B31], the IC50 is below 10 µM.

In turn, `O=C(O)C(c1ccccc1)N1C(=O)C(=Cc2ccc(-c3ccc(Cc4ccccc4)cc3)o2)SC1=S` (stereo not shown) [Compound B32] came in with an IC50 below 10 µM.

Compound `O=C(O)CCCCCN1C(=O)C(=Cc2ccc(-c3ccc(Cc4ccccc4)cc3)o2)SC1=S` [Compound B33] showed a concentration for half-maximal inhibition (IC50) of 11 to 40 µM.

As to `O=C(O)CCCCCN1C(=O)C(=Cc2ncc(-c3cccc(Cl)c3)o2)SC1=S` [Compound B34], the IC50 fell in the range of 11 to 40 µM.

The compound `O=C(O)C(c1ccccc1)N1C(=O)C(=Cc2ncc(-c3cccc(Cl)c3)o2)SC1=S` (stereo not shown) [Compound B35] had an IC50 of 11 to 40 µM.

`O=C(O)[C@@H](c1ccccc1)N1C(=O)C(=Cc2ccc(-c3ccc(Cl)cc3)o2)SC1=S` [Compound B36] yielded an IC50 below 10 µM.

Consider `O=C(O)[C@H](c1ccccc1)N1C(=O)C(=Cc2ccc(-c3ccc(Cl)cc3)o2)SC1=S` [Compound B37], for which the half-maximal inhibitory concentration (IC50) is below 10 µM.

`O=C(O)C(c1ccccc1)N1C(=O)C(=Cc2cc(-c3cccc(C(F)(F)F)c3)co2)SC1=S` (stereo not shown) [Compound B38] had a half-inhibitory concentration (IC50) below 10 µM.

On to `O=C(O)CCCCCN1C(=O)C(=Cc2cc(-c3cccc(C(F)(F)F)c3)co2)SC1=S` [Compound B39], for which the IC50 fell in the range of 11 to 40 µM.

Compound `O=C(O)C(Cc1ccccc1)N1C(=O)C(=Cc2ccc(-c3cccc(C(F)(F)F)c3)o2)SC1=S` (stereo not shown) [Compound B40] had an IC50 below 10 µM.

`O=C(O)C(Cc1ccccc1)N1C(=O)C(=Cc2ccc(-c3ccccc3Cl)o2)SC1=S` (stereo not shown) [Compound B41]: the IC50 was below 10 µM.

For `O=C(O)C(Cc1ccccc1)N1C(=O)C(=Cc2ccc(-c3ccc(Cl)cc3)o2)SC1=S` (stereo not shown) [Compound B42], the IC50 was below 10 µM.

Compound `O=C(O)CN1C(=O)C(=Cc2ccc(-c3ccc(Cl)cc3Cl)o2)SC1=S` [Compound B43] showed an IC50 below 10 µM.

Regarding `O=C(O)C(c1ccccc1)N1C(=O)C(=Cc2ccc(-c3ccc(Cl)cc3Cl)o2)SC1=S` (stereo not shown) [Compound B44], the IC50 was below 10 µM.

As to `O=C(O)C(Cc1ccccc1)N1C(=O)C(=Cc2ccc(-c3ccc(Cl)cc3Cl)o2)SC1=S` (stereo not shown) [Compound B45], the IC50 was below 10 µM.

Compound `O=C(O)C(c1ccccc1)N1C(=O)C(=Cc2ccc(-c3cc(Cl)ccc3Cl)o2)SC1=S` (stereo not shown) [Compound B46] registered a half-inhibitory concentration (IC50) below 10 µM.

With `O=C(O)C(Cc1ccccc1)N1C(=O)C(=Cc2ccc(-c3cc(Cl)ccc3Cl)o2)SC1=S` (stereo not shown) [Compound B47], the half-maximal inhibitory concentration (IC50) is below 10 µM.

Regarding `O=C(O)C(c1ccccc1)N1C(=O)C(=Cc2ccc(-c3c(Cl)cccc3Cl)o2)SC1=S` (stereo not shown) [Compound B48], the 50% inhibitory concentration (IC50) is below 10 µM.

Take `O=C(O)C(Cc1ccccc1)N1C(=O)C(=Cc2ccc(-c3c(Cl)cccc3Cl)o2)SC1=S` (stereo not shown) [Compound B49]: the half-maximal inhibitory concentration (IC50) is below 10 µM.

Take `O=C(O)C(c1ccccc1)N1C(=O)C(=Cc2ccc(-c3cccc(C(F)(F)F)c3)o2)SC1=S` (stereo not shown) [Compound B50]: the IC50 was below 10 µM.

The compound `O=C(O)C(Cc1ccc(O)cc1)N1C(=O)C(=Cc2ccc(-c3ccccc3Cl)o2)SC1=S` (stereo not shown) [Compound B51] registered an IC50 below 10 µM.

On to `O=C(O)C(Cc1ccc(O)cc1)N1C(=O)C(=Cc2ccc(-c3cccc(C(F)(F)F)c3)o2)SC1=S` (stereo not shown) [Compound B52], for which the IC50 was below 10 µM.

For the compound `O=C(O)C(Cc1ccc(O)cc1)N1C(=O)C(=Cc2ccc(-c3ccc(Cl)cc3)o2)SC1=S` (stereo not shown) [Compound B53], the concentration for half-maximal inhibition (IC50) is below 10 µM.

As for `O=C(O)C(Cc1ccc(O)c(O)c1)N1C(=O)C(=Cc2ccc(-c3ccccc3Cl)o2)SC1=S` (stereo not shown) [Compound B54], the half-inhibitory concentration (IC50) is 11 to 40 µM.

`O=C(O)C(Cc1ccc(O)c(O)c1)N1C(=O)C(=Cc2ccc(-c3cccc(C(F)(F)F)c3)o2)SC1=S` (stereo not shown) [Compound B55]: the 50% inhibitory concentration (IC50) was below 10 µM.

The same assay, now with this note: Table 1, Compounds A1 to A294; read-out: Dlat IC50 category.
Take `O=C(O)c1cc(N2C(=O)C(=Cc3ccc(-c4ccccc4-c4ccccc4)o3)SC2=S)ccc1F` [Compound A284]: the IC50 was below 10 µM.

For `CNS(=O)(=O)c1ccc(-c2ccc(C=C3SC(=S)N(c4cccc(C(=O)O)c4)C3=O)o2)cc1` [Compound A286], the half-inhibitory concentration (IC50) is 11 to 40 µM.

Consider `CNS(=O)(=O)c1ccc(-c2ccc(C=C3SC(=S)N(c4ccc(F)c(C(=O)O)c4)C3=O)o2)cc1` [Compound A287], for which the IC50 lay in the range of 11 to 40 µM.

Consider `NS(=O)(=O)c1ccc(-c2ccc(C=C3SC(=S)N(c4cccc(C(=O)O)c4)C3=O)o2)cc1` [Compound A288], for which the half-maximal inhibitory concentration (IC50) fell in the range of 11 to 40 µM.

For the compound `O=C(O)c1ccc(-c2ccc(C=C3SC(=S)N(c4ccccc4)C3=O)o2)cc1O` [Compound A289], the IC50 is below 10 µM.

Regarding `O=C(O)c1ccc(-c2ccc(C=C3SC(=S)N(c4cccc(O)c4)C3=O)o2)cc1` [Compound A290], the half-inhibitory concentration (IC50) is below 10 µM.

Consider `O=C(O)c1ccc(-c2ccc(C=C3SC(=S)N(c4ccc(O)cc4)C3=O)o2)cc1` [Compound A291], for which the 50% inhibitory concentration (IC50) was below 10 µM.

For the compound `NC(=O)c1cccc(N2C(=O)C(=Cc3ccc(-c4ccc(C(=O)O)cc4)o3)SC2=S)c1` [Compound A293], the IC50 was 11 to 40 µM.

`NS(=O)(=O)c1ccc(N2C(=O)C(=Cc3ccc(-c4ccc(C(=O)O)cc4)o3)SC2=S)cc1` [Compound A294]: the half-maximal inhibitory concentration (IC50) is below 10 µM.

In general, IC50 refers to the point on the concentration scale where inhibition reaches its midpoint.

(Values after patent publication US8338465B2, “Cyclic carboxylic acid rhodanine derivatives for the treatment and prevention of tuberculosis” (priority 2006, dated 2012).)
